Results: article PMC3511610 (Pediatric blood & cancer, 2012)
Entries after “also recorded” stand apart in the source; their conditions may differ.

Experiments:
[1] = Phase I trial: toxicity, dose-limiting toxicities, MTD; format: in vivo, human (pediatric patients); settings: for recommended phase 2 dose, vorinostat part of the combination: with bortezomib
[2] = single agent, children with recurrent or refractory cancer; cited from earlier work
[3] = cited from earlier work
[4] = no reference given, cited from earlier work
[5] = Vorinostat pharmacokinetics, day 8 cycle 1, noncompartmental
[6] = Bortezomib plasma pharmacokinetics, day 8 cycle 1, three-compartment model; format: in vivo, human (pediatric patients)
NF-κB = NF-κB activity by ELISA in patient PBMCs; format: in vivo, human (pediatric patients)
Grp78 = Grp78 immunoblot in patient PBMCs; format: in vivo, human (pediatric patients); settings: three evaluable of seven samples (four degraded); vs pre-treatment
[7] = prior pediatric single agent trials; cited from earlier work
[8] = Pediatric Preclinical Testing Program (PPTP); cited from earlier work
solid tumor = settings: Pediatric Preclinical Testing Program (PPTP); cited from earlier work
[9] = Mean, n=6, single intravenous dose of 1.3 mg/m^2, day 8 cycle 1, plasma

O=C(CCCCCCC(=O)Nc1ccccc1)NO [vorinostat, Vorinostat]
MTD, vorinostat part of the combination ([1]; PO days 1–5 and 8–12, with bortezomib 1.3 mg/m^2/day days 1, 4, 8, 11): 230 mg/m^2/day | recommended phase 2 dose, vorinostat part of the combination ([1]; PO days 1–5 and 8–12 of a 21 day cycle): 230 mg/m^2/day | recommended phase 2 dose, vorinostat part of the combination ([1]; orally days 1–5 and 8–12 of a 21 day cycle): 230 mg/m^2/dose | DLTs [2]: neutropenia, thrombocytopenia, and hypokalemia | recommended phase 2 regimen in adults with solid tumors, vorinostat dose ([3]; daily for eight days every 21 days, with bortezomib): 400 mg | adult recommended dose ([4]; daily): 400 mg | Tmax ([5]; human, serum, po, 180 mg/m^2): 6 h | mean apparent clearance ([5]; mean over patients, dose levels 180–300 mg/m^2 oral, day 8 cycle 1): 198 L/m^2

CC(C)C[C@H](NC(=O)[C@H](Cc1ccccc1)NC(=O)c1cnccn1)B(O)O [bortezomib, Bortezomib]
MTD, bortezomib part of the combination ([1]; i.v. days 1, 4, 8, 11, with vorinostat 230 mg/m^2/day, bortezomib not escalated): 1.3 mg/m^2/day | Cl (clearance) [6, 9]: 9.1 L/hr/m^2 | Vc (volume of distribution in the central compartment) [6, 9]: 13 L/m^2 | plasma concentrations prior to the day 8 dose ([6]; cycle 1, dosed every three days, suggests accumulation): low plasma concentrations | AUC(0-inf) ([6]; human, plasma, iv, 1.3 mg/m2): 485 ng·h/mL | AUC(0-t) ([6]; human, plasma, iv, 1.3 mg/m2): 82 ng·h/mL | pretreatment NF-κB activity levels in PBMCs compared to levels 24 hours after bortezomib administration (NF-κB; Figure 1, 0 vs 24 hours): the same or increased | NF-κB activity in PBMCs after bortezomib treatment (NF-κB; PBMCs from solid tumor patients, with vorinostat): did not observe a decrease in NF-κB activity | NF-κB activation in PBMCs at 24 hours (NF-κB; in approximately half of the patient samples): increase in NF-κB activation | Grp78 protein expression in PBMCs after bortezomib treatment (Grp78): no induction of Grp78 detected; also recorded: not able to detect Grp78 induction | Dose-limiting toxicities (DLTs) [7]: thrombocytopenia, confusion, and febrile neutropenia associated with hypotension and an elevated creatinine | recommended phase 2 regimen in adults with solid tumors, bortezomib dose ([3]; days 1, 4, 8, and 11, with vorinostat): 1.3 mg/m^2/dose | in vitro anti-tumor activity [8]: widespread in vitro anti-tumor activity | in vivo solid tumor activity (solid tumor): limited to rhabdomyosarcoma, Wilms tumor, osteosarcoma, and medulloblastoma | adult MTD [4]: 1.3 mg/m^2/day
